According to US12590100B2, “Tetrahydro-spiroindoline-pyrrolopyrrole-triones inhibitors of the NRF2-β-TrCP interaction for use in the treatment of fatty liver disease” (Universidad Autonoma De Madrid, priority 2021, dated 2026):

Target: SCF-βTrCP / NRF2 (Homo sapiens, UniProt Q9Y297)
Test: In vitro ubiquitination of phosphorylated NRF2 by the βTrCP complex
Format: biochemical
Details: for ubiquitination (polyubiquitination) of NRF2 by βTrCP: PHAR 3 μM, 1 hour at 25° C., western blot
Method: In vitro kinase assay and in vitro ubiquitination. For the recognition and degradation of NRF2 by βTrCP, the serines 335, 338, 342 and 347 located at the Neh6 domain of NRF2 need to be previously phosphorylated by the kinase GSK-3β (FIG. 1). Therefore, to obtain the phosphorylated substrate, 20 ng recombinant NRF2-DETGE was used together with 0.5 μg of recombinant GSK-3β incubated at 30° C. for 60 min. The result was analyzed by western blot. After confirming the existence of phosphorylation in the residues of interest, an in vitro ubiquitination assay was carried out using the recombinant proteins that make up the E3 ubiquitin ligase complex. The ubiquitination reaction was carried out using: ATP (2 mM), […], SCF-βTrCP (450 nM), and non-phosphorylated or phosphorylated NRF2 (20 ng), in a specific ubiquitination buffer (30 mM Tris pH 7.6, 5 mM MgCl2, 2 mM dithiothreitol, 100 mM NaCl). Before the ubiquitination reactions, the E1, Cdc34b, and ubiquitin components were incubated together for 2 min to allow the E2 thioester bond to form. The reactions were incubated for 1 hour at 25° C. in the presence or absence of PHAR (3 μM) in order to determine whether or not PHAR inhibits ubiquitination by βTrCP. […] The PI3K/AKT signaling pathway is inhibited, and therefore GSK-3β is activated with the PI3K inhibitor, LY294002. As a result, NRF2 is phosphorylated by GSK-3β and marked for degradation by means of interaction with β-TrCP. Therefore, if PHAR is capable of inhibiting βTrCP-NRF2 interaction, the NRF2 levels will remain stable independently of the activation and phosphorylation by GSK-3β. […]
FIG. 6. […] Phosphorylation at residues 335, 338, 342 and 347 was analyzed by western blot. […] Polyubiquitinated NRF2 was detected by western blot with anti-ubiquitin antibody. […] E), densitometric analysis of NRF2 protein levels of the representative immunoblot of (D), expressed as a ratio of NRF2/GAPDH. […] G), densitometric analysis of NRF2 and HO1 protein levels of the representative immunoblots of (F), expressed as a ratio of NRF2 and HO1/GAPDH. […]

Chain of SCF-βTrCP / NRF2 (Q9Y297 whole entry): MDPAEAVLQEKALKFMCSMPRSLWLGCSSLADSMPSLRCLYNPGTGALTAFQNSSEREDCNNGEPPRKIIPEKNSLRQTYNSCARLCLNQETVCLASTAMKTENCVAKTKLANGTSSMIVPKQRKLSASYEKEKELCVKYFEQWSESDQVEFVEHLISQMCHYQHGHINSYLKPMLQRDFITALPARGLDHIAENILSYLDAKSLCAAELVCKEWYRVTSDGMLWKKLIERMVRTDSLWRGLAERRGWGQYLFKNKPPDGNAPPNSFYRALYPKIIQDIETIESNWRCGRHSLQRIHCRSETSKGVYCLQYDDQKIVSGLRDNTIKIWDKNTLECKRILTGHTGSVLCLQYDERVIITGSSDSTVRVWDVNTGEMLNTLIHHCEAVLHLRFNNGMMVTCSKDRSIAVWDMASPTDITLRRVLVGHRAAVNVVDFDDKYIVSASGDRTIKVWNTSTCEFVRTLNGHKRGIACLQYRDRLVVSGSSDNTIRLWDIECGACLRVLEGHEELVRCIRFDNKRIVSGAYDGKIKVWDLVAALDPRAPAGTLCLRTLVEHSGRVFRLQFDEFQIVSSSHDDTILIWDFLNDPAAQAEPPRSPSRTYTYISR
Chain of SCF-βTrCP / NRF2 (P63208 whole entry partner): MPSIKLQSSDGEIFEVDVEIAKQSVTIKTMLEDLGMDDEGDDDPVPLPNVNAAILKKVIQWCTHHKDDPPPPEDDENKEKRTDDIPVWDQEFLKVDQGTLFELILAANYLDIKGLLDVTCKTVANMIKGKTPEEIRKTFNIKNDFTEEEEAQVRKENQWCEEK
Chain of SCF-βTrCP / NRF2 (Q13616 whole entry partner): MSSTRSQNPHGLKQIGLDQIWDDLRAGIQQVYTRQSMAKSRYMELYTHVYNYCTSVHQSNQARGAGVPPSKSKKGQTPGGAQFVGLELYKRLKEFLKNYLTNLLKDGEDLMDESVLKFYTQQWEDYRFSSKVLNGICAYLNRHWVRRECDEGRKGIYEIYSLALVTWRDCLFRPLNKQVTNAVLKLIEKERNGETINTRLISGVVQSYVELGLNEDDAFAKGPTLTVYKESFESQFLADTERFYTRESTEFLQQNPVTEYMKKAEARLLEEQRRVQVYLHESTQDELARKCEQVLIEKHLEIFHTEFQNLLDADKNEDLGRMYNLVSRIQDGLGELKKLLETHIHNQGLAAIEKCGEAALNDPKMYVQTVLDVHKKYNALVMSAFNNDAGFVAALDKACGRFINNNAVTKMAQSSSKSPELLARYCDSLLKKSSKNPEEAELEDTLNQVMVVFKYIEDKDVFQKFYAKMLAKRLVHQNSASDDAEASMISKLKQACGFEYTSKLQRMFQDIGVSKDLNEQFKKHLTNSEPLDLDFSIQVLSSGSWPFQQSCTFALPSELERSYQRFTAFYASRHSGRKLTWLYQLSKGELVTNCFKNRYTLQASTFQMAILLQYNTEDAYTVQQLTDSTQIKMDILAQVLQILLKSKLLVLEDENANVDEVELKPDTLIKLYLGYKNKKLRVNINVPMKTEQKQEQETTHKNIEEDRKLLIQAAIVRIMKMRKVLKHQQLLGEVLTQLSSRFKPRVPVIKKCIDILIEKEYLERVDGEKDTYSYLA
Chain of SCF-βTrCP / NRF2 (P62877 whole entry partner): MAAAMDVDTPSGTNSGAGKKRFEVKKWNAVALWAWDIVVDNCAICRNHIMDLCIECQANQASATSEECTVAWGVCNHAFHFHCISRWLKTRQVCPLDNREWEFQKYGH

## O=C1[C@@H]2[C@H](Cc3c[nH]c4ccccc34)N[C@]3(C(=O)Nc4ccc(Cl)cc43)[C@@H]2C(=O)N1c1ccc2c(c1)OCCO2 [PHAR]
  ubiquitination (polyubiquitination) of NRF2 by βTrCP: prevents the ubiquitination of NRF2
Listed as PH
  ubiquitination (polyubiquitination) of NRF2 by βTrCP: polyubiquitination was considerably lower
Dose curve 3-3000 nM
  concentration from which substrate polyubiquitination starts to be reduced: 100 nM
